Assay results published in ChEMBL document CHEMBL2331519, “Sesquiterpenes from the rhizomes of Curcuma heyneana” (J Nat Prod, 2013).

What was measured:
[1] = molecular target: T1, Tyrosine-protein phosphatase non-receptor type 1 (Homo sapiens) (UniProt P18031); assay: Inhibition of PTP1B (unknown origin) assessed as decrease in p-nitrophenol production from pNPP substrate at 25 ug/ml after 30 mins by HTS7000 bioassay reader analysis
T1 sequence (whole entry): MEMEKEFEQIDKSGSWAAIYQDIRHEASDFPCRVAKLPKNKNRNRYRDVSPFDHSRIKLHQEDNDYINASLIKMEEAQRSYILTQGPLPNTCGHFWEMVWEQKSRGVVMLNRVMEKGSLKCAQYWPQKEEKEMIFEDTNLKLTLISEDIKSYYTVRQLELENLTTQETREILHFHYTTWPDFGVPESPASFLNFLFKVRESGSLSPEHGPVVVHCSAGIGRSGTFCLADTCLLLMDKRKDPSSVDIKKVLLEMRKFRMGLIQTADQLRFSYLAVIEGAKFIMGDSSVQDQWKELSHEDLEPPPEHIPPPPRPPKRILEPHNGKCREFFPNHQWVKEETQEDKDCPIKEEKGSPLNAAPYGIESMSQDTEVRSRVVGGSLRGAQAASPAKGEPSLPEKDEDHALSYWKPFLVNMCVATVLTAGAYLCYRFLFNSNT

[2] = molecular target: T2, Tyrosine-protein phosphatase non-receptor type 2 (Homo sapiens, UniProt P17706); assay: (§1) Inhibition of TCPTP (unknown origin) assessed as decrease in p-nitrophenol production from pNPP substrate after 30 mins by HTS7000 bioassay reader analysis
T2 sequence (P17706 whole entry): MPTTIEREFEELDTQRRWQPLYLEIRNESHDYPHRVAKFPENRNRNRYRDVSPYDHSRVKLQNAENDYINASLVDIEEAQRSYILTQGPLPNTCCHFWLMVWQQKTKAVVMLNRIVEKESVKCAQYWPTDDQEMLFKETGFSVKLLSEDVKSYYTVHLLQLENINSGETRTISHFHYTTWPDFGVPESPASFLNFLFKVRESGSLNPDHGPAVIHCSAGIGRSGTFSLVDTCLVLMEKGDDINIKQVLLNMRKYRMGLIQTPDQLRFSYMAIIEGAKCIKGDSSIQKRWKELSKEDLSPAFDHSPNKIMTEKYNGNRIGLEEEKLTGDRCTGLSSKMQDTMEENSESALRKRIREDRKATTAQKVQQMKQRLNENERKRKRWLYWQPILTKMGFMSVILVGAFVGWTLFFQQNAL

[3] = molecular target: T3, Tyrosine-protein phosphatase non-receptor type 1 (Homo sapiens, UniProt P18031); assay: Inhibition of PTP1B (unknown origin) assessed as decrease in p-nitrophenol production from pNPP substrate after 30 mins by HTS7000 bioassay reader analysis
T3 sequence (P18031 whole entry): T1 sequence (whole entry)

[4] = molecular target: T4, Tyrosine-protein phosphatase non-receptor type 2 (Homo sapiens) (UniProt P17706); assay: as §1
T4 sequence (whole entry): T2 sequence (P17706 whole entry)

SMILES	inhibition [1] [%]	IC50 [2] [µM]	IC50 [3] [µM]	inhibition [4]
C=C(C)[C@@H]1CC[C@H](C)[C@]12CC(=C(C)C)C(=O)O2	< 65			
CC(C)=C1C[C@H]2[C@@H](CC[C@]2(C)O)C(CO)=CC1=O	< 65			
C[C@H]1[C@H](C)CC[C@]2(C(=O)O)CC[C@]3(C)C(=CC[C@@H]4[C@@]5(C)CC[C@H](O)C(C)(C)[C@@H]5CC[C@]43C)[C@H]12 [URSOLIC ACID]	96.7	2.4		
C=C(C)[C@@H]1CC[C@@]2(C)[C@H](O)CC[C@@](C)(O)[C@@H]2C1	< 65			
CCCCCCCCCCCCCCCC(=O)C1=C(O)[C@@H](CO)OC1=O	99.1	5.1	5.62	
CC(C)=C1C[C@H]2[C@@H](CC[C@@]2(C)O)[C@@](C)(O)CC1=O	86	15.7	35.1	Dose-dependent effect
CC1=CC(=O)C(=C(C)C)C[C@H]2[C@H]1CC[C@]2(C)O [PROCURCUMENOL]	69.3	26.8	45.6	Dose-dependent effect
C=C(C)[C@@H]1CC[C@]2(C)OC(=O)C(=C(C)C)C[C@@H]12	< 65			
C=C(C)[C@H]1CC[C@@](C)(O)[C@H]2CC[C@](C)(O)[C@H]2C1	< 65			
CC1=CC(=O)C(=C(C)C)C[C@@H]2[C@@](C)(O)CC[C@]12O [AERUGIDIOL]	87.5	45.9	35.7	Dose-dependent effect
C=C(C)[C@@H]1CC[C@@]2(C)OC(=O)C(=C(C)C)C[C@@H]12	< 65			
C=C1C[C@]2(O)O[C@@]3(CC2=C(C)C)[C@@H](C)CC[C@@H]13	< 65			
C=C(C)[C@@H]1CC[C@@H](C)[C@@]12C=C(C(C)(C)O)C(=O)O2	< 65			
C=C(C)[C@@H]1CC[C@](C)(O)[C@H]2CC[C@](C)(O)[C@H]2C1	< 65			
CC(C)=C1C[C@@H](O)[C@@](C)(O)CC[C@H](O)/C(C)=C\C1=O [HEYNEANONE A]	77.5	62	42.5	Dose-dependent effect
C=C1CC[C@H]2C(C)(C)CCC[C@]2(C)[C@H]1/C=C/C(C)=O	88.8	9.3	14.7	Dose-dependent effect
C=C(C)[C@@H]1CC[C@H](C)[C@@]12C=C(C(C)(C)O)C(=O)O2	< 65			
CC(C)=C1C[C@H]2[C@H](CC[C@]2(C)O)[C@@](C)(O)CC1=O	< 65			
CC(C)=C1C[C@H]2[C@@H](CC[C@]2(C)O)[C@](C)(O)CC1=O	< 65			
CC(C)=C1C[C@@H](O)[C@](C)(O)CC[C@H](O)/C(C)=C\C1=O	< 65			
C=C1CC[C@H]2C(C)(C)CCC[C@]2(C)[C@H]1C/C=C(\C=O)CC(=O)O [ZERUMIN A]	96.7	7.4	10.4	Dose-dependent effect
CC1=CC(=O)[C@@]2(C[C@]3(O)[C@@H](C)CC[C@@H]13)OC2(C)C	< 65			
C=C(C)[C@H]1CC[C@H](C)[C@]12CC(=C(C)C)C(=O)O2	< 65			
CC(C)=C1C[C@@H](O)[C@@](C)(O)CC[C@@H](O)/C(C)=C\C1=O [HEYNEANONES C]	86.2	36.7	35.2	Dose-dependent effect
C/C1=C/C(=O)/C(C(C)(C)O)=C\C=C(\C)C(=O)CC1	< 65			
CC1=C[C@@]2(O)O[C@@]3(C/C2=C(/C)CO)[C@@H](C)CC[C@@H]13	< 65			
